Measurements reported in ChEMBL document CHEMBL3044568, “Synthesis, analgesic, anti-inflammatory, and in vitro antimicrobial activities of some novel quinazolin-4(3H)-one derivatives” (Med Chem Res, 2013).
≈ marks a conversion by molar mass, not a printed value.

Tests used:
Rattus norvegicus [1] = test: Anti-inflammatory activity in Rattus norvegicus Wistar (rat) assessed as protection against carrageenan-induced paw edema at 20 mg/kg, po measured at 30 min by plethysmographic analysis (reference value: 4 +/- 0.28%); type: functional
Aspergillus niger = test: Antifungal activity against Aspergillus niger ATCC 9029 assessed as growth inhibition after 48 hr by agar streak dilution method; type: functional; conditions: ATCC 9029, 48 h
Mus musculus [2] = test: Analgesic activity in Mus musculus […] albino (mouse) at 20 mg/kg, po measured at 30 min by tail flick test (reference value: 4 +/- 0.72%)
Aspergillus fumigatus = test: Antifungal activity against Aspergillus fumigatus ATCC 46645 assessed as growth inhibition after 48 hr by agar streak dilution method; type: functional; conditions: ATCC 46645, 48 h
Pseudomonas aeruginosa = test: Antibacterial activity against Pseudomonas aeruginosa […] assessed as growth inhibition after 24 hr by agar streak dilution method; type: functional
Mus musculus [3] = test: Analgesic activity in Mus musculus […] albino (mouse) at 20 mg/kg, po measured at 3 hr by tail flick test (reference value: 3 +/- 0.41%)
Rattus norvegicus [4] = test: Anti-inflammatory activity in Rattus norvegicus Wistar (rat) assessed as protection against carrageenan-induced paw edema at 10 mg/kg, po measured at 1 hr by plethysmographic analysis (reference value: 6 +/- 0.63%); type: functional
Rattus norvegicus [5] = test: Ulcerogenecity in Rattus norvegicus Wistar albino (rat) stomach assessed as ulcer index administered 20 mg/kg, ip qd for 3 days measured on day 4 relative to aspirin; type: ADME, organism-based; parameters: dose 20 mg/kg, route intraperitoneal; conditions: in vivo, 72 h
Rattus norvegicus [6] = test: Ulcerogenecity in Rattus norvegicus Wistar albino (rat) stomach assessed as ulcer index administered 20 mg/kg, ip qd for 3 days measured on day 4 (reference value: 0.13 +/- 0.05 no unit); type: ADME, organism-based; parameters: dose 20 mg/kg, route intraperitoneal; conditions: in vivo, 72 h
Staphylococcus aureus = test: Antibacterial activity against Staphylococcus aureus ATCC 9144 assessed as growth inhibition after 24 hr by agar streak dilution method; type: functional; conditions: ATCC 9144, 24 h
Mus musculus [7] = test: Analgesic activity in Mus musculus […] albino (mouse) at 10 mg/kg, po measured at 2 hr by tail flick test (reference value: 6 +/- 0.84%)
Rattus norvegicus [8] = test: Anti-inflammatory activity in Rattus norvegicus Wistar (rat) assessed as protection against carrageenan-induced paw edema at 10 mg/kg, po measured at 30 min by plethysmographic analysis (reference value: 4 +/- 0.28%); type: functional
Rattus norvegicus [9] = test: Ulcerogenecity in Rattus norvegicus Wistar albino (rat) stomach assessed as ulcer index administered 20 mg/kg, ip qd for 3 days measured on day 4 relative to diclofenac; type: ADME, organism-based; parameters: dose 20 mg/kg, route intraperitoneal; conditions: in vivo, 72 h
Bacillus cereus = test: Antibacterial activity against Bacillus cereus ATCC 11778 assessed as growth inhibition after 24 hr by agar streak dilution method; type: functional; conditions: ATCC 11778, 24 h
Mus musculus [10] = test: Analgesic activity in Mus musculus […] albino (mouse) at 10 mg/kg, po measured at 1 hr by tail flick test (reference value: 5 +/- 0.49%)
Klebsiella pneumoniae = test: Antibacterial activity against Klebsiella pneumoniae ATCC 11298 assessed as growth inhibition after 24 hr by agar streak dilution method; type: functional; conditions: ATCC 11298, 24 h
Mus musculus [11] = test: Analgesic activity in Mus musculus […] albino (mouse) at 20 mg/kg, po measured at 2 hr by tail flick test (reference value: 6 +/- 0.84%)
Escherichia coli = test: Antibacterial activity against Escherichia coli ATCC 25922 assessed as growth inhibition after 24 hr by agar streak dilution method; type: functional; conditions: ATCC 25922, 24 h
Mus musculus [12] = test: Analgesic activity in Mus musculus […] albino (mouse) at 10 mg/kg, po measured at 30 min by tail flick test (reference value: 4 +/- 0.72%)
Rattus norvegicus [13] = test: Anti-inflammatory activity in Rattus norvegicus Wistar (rat) assessed as protection against carrageenan-induced paw edema at 10 mg/kg, po measured at 2 hr by plethysmographic analysis (reference value: 5 +/- 0.41%); type: functional
Mus musculus [14] = test: Analgesic activity in Mus musculus […] albino (mouse) at 20 mg/kg, po measured at 1 hr by tail flick test (reference value: 5 +/- 0.49%)
Mus musculus [15] = test: Analgesic activity in Mus musculus […] albino (mouse) at 10 mg/kg, po measured at 3 hr by tail flick test (reference value: 3 +/- 0.41%)
Micrococcus luteus = test: Antibacterial activity against Micrococcus luteus ATCC 4698 assessed as growth inhibition after 24 hr by agar streak dilution method; type: functional; conditions: ATCC 4698, 24 h
Rattus norvegicus [16] = test: Anti-inflammatory activity in Rattus norvegicus Wistar (rat) assessed as protection against carrageenan-induced paw edema at 20 mg/kg, po measured at 1 hr by plethysmographic analysis (reference value: 6 +/- 0.63%); type: functional
Rattus norvegicus [17] = test: Anti-inflammatory activity in Rattus norvegicus Wistar (rat) assessed as protection against carrageenan-induced paw edema at 10 mg/kg, po measured at 3 hr by plethysmographic analysis (reference value: 4 +/- 0.75%); type: functional
[18] = test system: Staphylococcus epidermidis; test: Antibacterial activity against Staphylococcus epidermidis ATCC 155 assessed as growth inhibition after 24 hr by agar streak dilution method; type: functional; conditions: ATCC 155, 24 h
Rattus norvegicus [19] = test: Anti-inflammatory activity in Rattus norvegicus Wistar (rat) assessed as protection against carrageenan-induced paw edema at 20 mg/kg, po measured at 3 hr by plethysmographic analysis (reference value: 4 +/- 0.75%); type: functional
Rattus norvegicus [20] = test: Anti-inflammatory activity in Rattus norvegicus Wistar (rat) assessed as protection against carrageenan-induced paw edema at 20 mg/kg, po measured at 2 hr by plethysmographic analysis (reference value: 5 +/- 0.41%); type: functional
Rattus norvegicus [21] = test: Ulcerogenecity in Rattus norvegicus Wistar albino (rat) stomach assessed as ulcer index administered 200 mg/kg, ip qd for 3 days measured on day 4 (reference value: 0.13 +/- 0.05 no unit); type: ADME, organism-based; parameters: dose 200 mg/kg, route intraperitoneal; conditions: in vivo, 72 h

Row | SMILES | Activity (Rattus norvegicus [1]) [%] | MIC (Aspergillus niger) [µg/mL] | Activity (Mus musculus [2]) [%] | MIC (Aspergillus fumigatus) [µg/mL] | MIC (Pseudomonas aeruginosa) [µg/mL] | Activity (Mus musculus [3]) [%] | Activity (Rattus norvegicus [4]) [%] | UI (Rattus norvegicus [5]) [%] | UI (Rattus norvegicus [6]) [no unit] | MIC (Staphylococcus aureus) [µg/mL] | Activity (Mus musculus [7]) [%] | Activity (Rattus norvegicus [8]) [%] | UI (Rattus norvegicus [9]) [%] | MIC (Bacillus cereus) [µg/mL] | Activity (Mus musculus [10]) [%] | MIC (Klebsiella pneumoniae) [µg/mL] | Activity (Mus musculus [11]) [%] | MIC (Escherichia coli) [µg/mL] | Activity (Mus musculus [12]) [%] | Activity (Rattus norvegicus [13]) [%] | other results
1 | Cc1nc2ccccc2c(=O)n1-c1ccc(NC(=O)CN/N=C/c2ccc([N+](=O)[O-])cc2)cc1 | 29 | 15.6 (≈ 34.2 µM) | 38 | 15.6 (≈ 34.2 µM) | 15.6 (≈ 34.2 µM) | 27 | 26 | 31 | 0.8 | 31.2 (≈ 68.5 µM) | 36 | 20 | 34 | 7.81 (≈ 17.1 µM) | 31 | 7.81 (≈ 17.1 µM) | 49 | 31.2 (≈ 68.5 µM) | 26 | 31 | Activity (Mus musculus [14]): 42%; Activity (Mus musculus [15]): 25%; MIC (Micrococcus luteus): 15.6 µg/mL (≈ 34.2 µM); Activity (Rattus norvegicus [16]): 36%; Activity (Rattus norvegicus [17]): 20%; MIC [18]: 7.81 µg/mL (≈ 17.1 µM); Activity (Rattus norvegicus [19]): 31%; Activity (Rattus norvegicus [20]): 40%
2 | Cc1nc2ccccc2c(=O)n1-c1ccc(NC(=O)CN/N=C/c2ccc(F)cc2)cc1 | 37 | 31.2 (≈ 72.8 µM) | 44 | 15.6 (≈ 36.4 µM) | 7.81 (≈ 18.2 µM) | 35 | 33 | 31 | 0.64 | 31.2 (≈ 72.8 µM) | 42 | 26 | 34 | 7.81 (≈ 18.2 µM) | 38 | 3.9 (≈ 9.08 µM) | 58 | 31.2 (≈ 72.8 µM) | 32 | 36 | Activity (Mus musculus [14]): 54%; Activity (Mus musculus [15]): 31%; MIC (Micrococcus luteus): 15.6 µg/mL (≈ 36.4 µM); Activity (Rattus norvegicus [16]): 49%; Activity (Rattus norvegicus [17]): 29%; MIC [18]: 7.81 µg/mL (≈ 18.2 µM); Activity (Rattus norvegicus [19]): 36%; Activity (Rattus norvegicus [20]): 52%
3 | CC(=O)Oc1ccccc1C(=O)O [ASPIRIN] |  |  |  |  |  |  |  |  |  |  |  |  |  |  |  |  |  |  |  |  | UI (Rattus norvegicus [21]): 1.79%
4 | Cc1ccc(/C=N/NCC(=O)Nc2ccc(-n3c(C)nc4ccccc4c3=O)cc2)cc1 | 41 | 62.5 (≈ 147 µM) | 48 | 125 (≈ 294 µM) | 62.5 (≈ 147 µM) | 41 | 35 | 31 | 0.61 | 125 (≈ 294 µM) | 47 | 30 | 34 | 31.2 (≈ 73.4 µM) | 42 | 31.2 (≈ 73.4 µM) | 63 | 62.5 (≈ 147 µM) | 37 | 41 | Activity (Mus musculus [14]): 59%; Activity (Mus musculus [15]): 37%; MIC (Micrococcus luteus): 125 µg/mL (≈ 294 µM); Activity (Rattus norvegicus [16]): 54%; Activity (Rattus norvegicus [17]): 31%; MIC [18]: 62.5 µg/mL (≈ 147 µM); Activity (Rattus norvegicus [19]): 39%; Activity (Rattus norvegicus [20]): 60%
5 | Cc1nc2ccccc2c(=O)n1-c1ccc(NC(=O)CN/N=C/c2ccccc2)cc1 | 35 | 31.2 (≈ 75.9 µM) | 42 | 31.2 (≈ 75.9 µM) | 31.2 (≈ 75.9 µM) | 32 | 29 | 31 | 0.7 | 31.2 (≈ 75.9 µM) | 41 | 24 | 34 | 31.2 (≈ 75.9 µM) | 35 | 15.6 (≈ 38 µM) | 57 | 62.5 (≈ 152 µM) | 30 | 34 | Activity (Mus musculus [14]): 50%; Activity (Mus musculus [15]): 29%; MIC (Micrococcus luteus): 62.5 µg/mL (≈ 152 µM); Activity (Rattus norvegicus [16]): 46%; Activity (Rattus norvegicus [17]): 28%; MIC [18]: 31.2 µg/mL (≈ 75.9 µM); Activity (Rattus norvegicus [19]): 32%; Activity (Rattus norvegicus [20]): 51%
